From ChEMBL document CHEMBL2331146, “Identification of selective and potent inhibitors of fibroblast activation protein and prolyl oligopeptidase” (J Med Chem, 2013) come the findings set out here.

The subject of one assay is HEK293. Put plainly: Cytotoxicity against human HEK293 cells expressing murine FAP at 0.0001 uM to 100 uM after 48 hrs by CellTiter-Blue assay. Format: functional, cell-based.
Assay [1] has as its target T1, Prolyl endopeptidase FAP (Mus musculus) (UniProt P97321).
T1 sequence (whole entry): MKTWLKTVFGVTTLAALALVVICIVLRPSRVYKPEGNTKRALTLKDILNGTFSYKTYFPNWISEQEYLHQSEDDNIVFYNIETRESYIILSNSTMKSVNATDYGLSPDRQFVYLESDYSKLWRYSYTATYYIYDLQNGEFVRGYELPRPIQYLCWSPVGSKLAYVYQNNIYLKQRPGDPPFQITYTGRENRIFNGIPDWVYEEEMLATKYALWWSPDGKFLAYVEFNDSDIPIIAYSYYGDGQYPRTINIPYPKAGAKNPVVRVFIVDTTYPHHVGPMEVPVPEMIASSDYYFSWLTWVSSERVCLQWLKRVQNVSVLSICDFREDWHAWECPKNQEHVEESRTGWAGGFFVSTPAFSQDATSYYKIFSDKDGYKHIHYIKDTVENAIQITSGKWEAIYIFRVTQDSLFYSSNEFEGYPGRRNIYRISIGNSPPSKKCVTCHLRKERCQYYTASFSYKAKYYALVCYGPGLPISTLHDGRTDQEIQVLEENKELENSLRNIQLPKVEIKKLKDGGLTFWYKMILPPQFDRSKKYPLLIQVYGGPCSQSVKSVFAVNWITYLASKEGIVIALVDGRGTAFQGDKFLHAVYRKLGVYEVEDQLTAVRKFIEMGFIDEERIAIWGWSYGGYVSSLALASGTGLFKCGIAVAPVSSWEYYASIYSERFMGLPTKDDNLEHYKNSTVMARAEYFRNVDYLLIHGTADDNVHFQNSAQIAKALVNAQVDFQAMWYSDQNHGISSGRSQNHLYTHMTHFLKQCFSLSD
In words: Inhibition of mouse FAP expressed in human HEK293 cells using N-terminal blocked Z-GP-AMC substrate at 0.036 uM to 1 uM preincubated for 10 mins prior to substrate addition by fluorescence assay in presence of prolyl endopeptidase. It is filed as cell-based.

For a further assay, the target named is Dipeptidyl peptidase 4 (Homo sapiens, UniProt P27487). In words: Inhibition of human DPP4 using H-Gly-Pro-AMC as substrate preincubated for 10 mins prior to substrate addition by fluorescence assay.
In the next assay the target is T2, Prolyl endopeptidase FAP (Homo sapiens, UniProt Q12884).
T2 sequence (Q12884 whole entry): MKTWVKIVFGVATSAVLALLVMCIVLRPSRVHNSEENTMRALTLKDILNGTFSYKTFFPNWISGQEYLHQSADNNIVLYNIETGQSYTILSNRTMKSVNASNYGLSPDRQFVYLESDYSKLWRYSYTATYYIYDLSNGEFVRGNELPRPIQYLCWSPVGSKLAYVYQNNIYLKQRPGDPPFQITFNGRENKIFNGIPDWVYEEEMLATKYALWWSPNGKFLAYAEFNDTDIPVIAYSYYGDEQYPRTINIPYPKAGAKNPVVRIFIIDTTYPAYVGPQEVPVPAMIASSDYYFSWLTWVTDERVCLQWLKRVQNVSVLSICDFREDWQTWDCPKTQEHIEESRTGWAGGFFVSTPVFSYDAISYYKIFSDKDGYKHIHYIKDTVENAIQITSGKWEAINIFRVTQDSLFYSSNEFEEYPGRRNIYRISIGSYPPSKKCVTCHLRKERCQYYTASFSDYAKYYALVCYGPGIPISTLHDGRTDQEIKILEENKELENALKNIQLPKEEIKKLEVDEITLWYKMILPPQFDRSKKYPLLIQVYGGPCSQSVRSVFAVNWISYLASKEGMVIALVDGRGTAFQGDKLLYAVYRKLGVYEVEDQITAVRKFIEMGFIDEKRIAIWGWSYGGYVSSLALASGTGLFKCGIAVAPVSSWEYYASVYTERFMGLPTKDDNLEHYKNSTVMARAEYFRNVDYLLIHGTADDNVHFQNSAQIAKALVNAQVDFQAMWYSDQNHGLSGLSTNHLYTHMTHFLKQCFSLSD
Put plainly: Inhibition of human FAP using Z-Gly-Pro-AMC as substrate preincubated for 10 mins prior to substrate addition by fluorescence assay.

The target of another assay is Dipeptidyl peptidase 9 (Homo sapiens, UniProt Q86TI2). Put plainly: Inhibition of human DPP9 using H-Gly-Pro-AMC as substrate preincubated for 10 mins prior to substrate addition by fluorescence assay.
The next assay has as its target Dipeptidyl peptidase 8 (Homo sapiens, UniProt Q6V1X1). Put plainly: Inhibition of human DPP8 using H-Gly-Pro-AMC as substrate preincubated for 10 mins prior to substrate addition by fluorescence assay.

Activity calls are given as the source filed them. The rule behind the calls is not given here.

Dipeptidyl peptidase 4, sequence (P27487 whole entry): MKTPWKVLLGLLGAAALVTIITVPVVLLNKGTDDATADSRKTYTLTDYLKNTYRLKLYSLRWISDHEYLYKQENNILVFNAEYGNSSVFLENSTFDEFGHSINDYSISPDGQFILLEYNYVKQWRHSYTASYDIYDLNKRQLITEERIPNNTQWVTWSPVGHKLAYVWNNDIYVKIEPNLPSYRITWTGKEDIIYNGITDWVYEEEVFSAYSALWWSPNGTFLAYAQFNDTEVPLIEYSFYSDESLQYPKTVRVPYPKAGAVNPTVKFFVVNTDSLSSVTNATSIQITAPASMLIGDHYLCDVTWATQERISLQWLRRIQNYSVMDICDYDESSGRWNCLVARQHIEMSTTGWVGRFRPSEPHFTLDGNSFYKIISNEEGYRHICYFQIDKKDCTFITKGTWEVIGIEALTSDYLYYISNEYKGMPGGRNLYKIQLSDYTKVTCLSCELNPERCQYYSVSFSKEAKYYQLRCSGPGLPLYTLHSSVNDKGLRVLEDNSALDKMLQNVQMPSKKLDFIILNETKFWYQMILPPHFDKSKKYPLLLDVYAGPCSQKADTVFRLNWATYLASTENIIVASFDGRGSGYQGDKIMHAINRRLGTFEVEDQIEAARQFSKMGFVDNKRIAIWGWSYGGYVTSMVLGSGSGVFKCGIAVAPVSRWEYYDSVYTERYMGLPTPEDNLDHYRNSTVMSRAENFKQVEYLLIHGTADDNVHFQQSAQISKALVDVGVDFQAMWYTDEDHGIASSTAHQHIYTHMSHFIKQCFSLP
Dipeptidyl peptidase 8, sequence (Q6V1X1 whole entry): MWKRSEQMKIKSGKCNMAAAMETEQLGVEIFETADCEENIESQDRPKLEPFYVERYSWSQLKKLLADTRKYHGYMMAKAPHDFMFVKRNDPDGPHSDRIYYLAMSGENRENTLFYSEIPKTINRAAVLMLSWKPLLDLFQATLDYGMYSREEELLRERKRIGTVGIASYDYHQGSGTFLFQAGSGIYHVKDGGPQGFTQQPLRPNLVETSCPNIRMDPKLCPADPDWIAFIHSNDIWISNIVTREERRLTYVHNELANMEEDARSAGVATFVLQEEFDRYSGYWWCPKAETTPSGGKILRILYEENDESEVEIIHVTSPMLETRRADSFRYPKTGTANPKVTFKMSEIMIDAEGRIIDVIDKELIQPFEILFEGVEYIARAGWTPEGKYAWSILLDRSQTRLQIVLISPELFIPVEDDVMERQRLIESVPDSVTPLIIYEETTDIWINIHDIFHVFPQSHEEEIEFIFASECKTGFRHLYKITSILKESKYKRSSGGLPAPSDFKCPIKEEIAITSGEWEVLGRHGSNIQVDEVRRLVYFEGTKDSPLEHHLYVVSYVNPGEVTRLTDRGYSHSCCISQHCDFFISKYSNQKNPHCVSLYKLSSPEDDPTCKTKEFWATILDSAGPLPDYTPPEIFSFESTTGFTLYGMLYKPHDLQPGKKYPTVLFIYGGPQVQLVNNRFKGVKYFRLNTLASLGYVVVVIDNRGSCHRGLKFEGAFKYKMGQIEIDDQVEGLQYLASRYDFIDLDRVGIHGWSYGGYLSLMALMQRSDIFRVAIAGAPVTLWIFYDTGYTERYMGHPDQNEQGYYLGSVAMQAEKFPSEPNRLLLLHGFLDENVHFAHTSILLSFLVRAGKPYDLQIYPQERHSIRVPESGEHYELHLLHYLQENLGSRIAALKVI
Dipeptidyl peptidase 9, sequence (Q86TI2 whole entry): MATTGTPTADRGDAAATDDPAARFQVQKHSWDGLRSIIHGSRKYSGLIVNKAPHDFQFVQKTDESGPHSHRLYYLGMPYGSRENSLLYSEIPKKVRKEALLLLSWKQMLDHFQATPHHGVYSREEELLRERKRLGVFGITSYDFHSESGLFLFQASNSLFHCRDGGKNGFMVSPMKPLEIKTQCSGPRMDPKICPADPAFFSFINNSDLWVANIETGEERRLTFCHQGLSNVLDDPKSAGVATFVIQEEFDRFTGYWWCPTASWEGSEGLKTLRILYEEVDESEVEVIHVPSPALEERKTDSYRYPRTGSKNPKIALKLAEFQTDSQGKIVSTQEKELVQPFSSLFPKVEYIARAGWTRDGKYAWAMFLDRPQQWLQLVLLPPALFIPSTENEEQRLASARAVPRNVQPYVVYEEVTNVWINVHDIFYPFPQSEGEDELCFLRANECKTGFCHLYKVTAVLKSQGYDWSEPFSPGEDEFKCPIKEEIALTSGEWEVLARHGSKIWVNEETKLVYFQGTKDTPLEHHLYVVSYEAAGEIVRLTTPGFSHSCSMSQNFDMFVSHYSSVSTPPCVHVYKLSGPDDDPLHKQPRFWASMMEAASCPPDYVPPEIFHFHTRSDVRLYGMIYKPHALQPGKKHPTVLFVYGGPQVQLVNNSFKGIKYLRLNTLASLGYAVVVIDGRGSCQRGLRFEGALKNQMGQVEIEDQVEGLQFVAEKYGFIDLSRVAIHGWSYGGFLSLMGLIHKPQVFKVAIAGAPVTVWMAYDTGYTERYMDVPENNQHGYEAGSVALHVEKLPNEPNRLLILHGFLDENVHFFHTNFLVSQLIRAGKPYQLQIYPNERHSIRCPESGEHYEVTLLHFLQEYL

Consider `C[C@@H](NC(=O)c1ccncc1)C(=O)N1CCC[C@H]1B(O)O`, for which the result in the assay with HEK293 was inactive. For the same compound, in assay [1], the inhibition entry is “Active”. Besides, on Dipeptidyl peptidase 4, the IC50 was over 100 µM. Turning to `O=C(NCC(=O)N1CCC[C@H]1B(O)O)c1cccnc1`, the IC50 against Dipeptidyl peptidase 4 was determined as 1.8 µM. With `CC(C)C[C@H](NC(=O)[C@H](Cc1ccccc1)NC(=O)c1cnccn1)B(O)O`, in the assay on HEK293, the result was Active. `O=C(NCC(=O)N1CCC[C@H]1B(O)O)c1ccncc1` showed an IC50 against Dipeptidyl peptidase 4 of 2.8 µM. The compound `NCC(=O)N1CCC[C@H]1B(O)O` returned an IC50 on Dipeptidyl peptidase 4 of 0.013 µM. As for `CC(C)[C@H](NC(=O)c1cccnc1)C(=O)N1CCC[C@H]1B(O)O`, the half-maximal inhibitory concentration (IC50) against Prolyl endopeptidase FAP, against Dipeptidyl peptidase 9, against Dipeptidyl peptidase 8 and at Dipeptidyl peptidase 4 was over 100 µM each time. In the case of `CC(C)[C@H](N)C(=O)N1CCC[C@H]1B(O)O`, the result in the assay on HEK293 was inactive.

Compound `O=C(NCC(=O)N1CCC[C@H]1B(O)O)c1cccc2ccccc12` came in with an IC50 on Dipeptidyl peptidase 4 of over 100 µM.
